# Assay results taken from PMC12164691 (Molecular Pharmacology, 2021).
# How the values were obtained:
# TAS2R39 [1] = target: T1, TAS2R39 (Homo sapiens, UniProt P59534); test: Calcium mobilization in HEK293 cells expressing TAS2R39 and Gα16-gust44; antagonism of […] TAF (also of […] denatonium, IC50 […]); format: cell-based
# T1 sequence (P59534 1-338): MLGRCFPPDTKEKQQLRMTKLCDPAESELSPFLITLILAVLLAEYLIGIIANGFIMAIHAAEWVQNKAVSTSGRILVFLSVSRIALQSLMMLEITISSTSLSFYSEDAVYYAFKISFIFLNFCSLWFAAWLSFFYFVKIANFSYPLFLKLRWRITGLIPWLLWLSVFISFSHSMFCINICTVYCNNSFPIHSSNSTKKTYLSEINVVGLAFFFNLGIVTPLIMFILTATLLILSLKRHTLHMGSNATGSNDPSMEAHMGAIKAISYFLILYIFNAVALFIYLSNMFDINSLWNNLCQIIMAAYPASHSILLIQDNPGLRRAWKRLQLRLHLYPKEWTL
# TAS2R39 [2] = target: T1, TAS2R39
# TAS2R14 = TAS2R14 (Homo sapiens, UniProt Q9NYV8)
# Sequence of TAS2R14 (Q9NYV8 whole entry): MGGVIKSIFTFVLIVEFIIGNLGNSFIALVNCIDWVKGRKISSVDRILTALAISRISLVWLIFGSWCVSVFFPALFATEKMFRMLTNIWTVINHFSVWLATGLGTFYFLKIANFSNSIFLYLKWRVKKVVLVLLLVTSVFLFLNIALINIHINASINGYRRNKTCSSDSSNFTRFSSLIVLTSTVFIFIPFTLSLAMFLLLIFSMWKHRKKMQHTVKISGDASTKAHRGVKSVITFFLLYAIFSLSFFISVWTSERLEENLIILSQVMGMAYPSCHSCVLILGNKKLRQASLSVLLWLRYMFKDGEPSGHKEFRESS
# TAS2R8 = TAS2R8 (Homo sapiens, UniProt Q9NYW2)
# Sequence of TAS2R8 (Q9NYW2 whole entry): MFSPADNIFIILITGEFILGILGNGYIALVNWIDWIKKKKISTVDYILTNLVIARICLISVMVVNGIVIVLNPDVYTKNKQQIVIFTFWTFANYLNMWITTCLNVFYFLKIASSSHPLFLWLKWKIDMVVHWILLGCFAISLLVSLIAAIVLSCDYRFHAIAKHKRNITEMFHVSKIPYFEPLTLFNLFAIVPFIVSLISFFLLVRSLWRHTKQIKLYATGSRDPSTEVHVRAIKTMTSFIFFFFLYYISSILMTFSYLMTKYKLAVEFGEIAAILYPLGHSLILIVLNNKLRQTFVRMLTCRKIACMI
compound,measurement,setting,value
"Cc1ccc2oc(-c3ccccc3)cc(=O)c2c1 [6-MF, 6-methylflavone]",IC50,TAS2R39 [1],22 µM
"CC(C)OC(=O)[C@H](C)N[P@](=O)(CO[C@H](C)Cn1cnc2c(N)ncnc21)Oc1ccccc1 [TAF, tenofovir alafenamide]",Calcium mobilization in HEK293 cells expressing TAS2R39 and Gα16-gust44; concent,TAS2R39 [2],"TAF activates TAS2R1, TAS2R8, TAS2R14, and TAS2R39 concentration-dependently."
same,Calcium mobilization in HEK293 cells expressing TAS2R14 and Gα16-gust44; concent,TAS2R14,cells expressing TAS2R8 and TAS2R14 showed small but significant responses to TAF
same,Calcium mobilization in HEK293 cells expressing TAS2R8 and Gα16-gust44; concentr,TAS2R8,cells expressing TAS2R8 and TAS2R14 showed small but significant responses to TAF
